In patent publication US8691753B2 (priority 2009, dated 2014):

Tests used:
Type in all cases: biochemical
MMP-9h = MMP-9h (Homo sapiens (Human), UniProt P14780); experiment: Inhibition constant (Ki) on MMP-9h; settings: read-out: Ki MMP-9h; human MMP-9
Method in brief: (§1)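 Protocol from prior literature applied; inhibition constants measured for human enzymes only.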

MMP-10h = MMP-10h (Homo sapiens (Human), UniProt P09238); experiment: Inhibition constant (Ki) on MMP-10h; settings: read-out: Ki MMP-10h; human MMP-10
MMP-10h, sequence (P09238 99-476): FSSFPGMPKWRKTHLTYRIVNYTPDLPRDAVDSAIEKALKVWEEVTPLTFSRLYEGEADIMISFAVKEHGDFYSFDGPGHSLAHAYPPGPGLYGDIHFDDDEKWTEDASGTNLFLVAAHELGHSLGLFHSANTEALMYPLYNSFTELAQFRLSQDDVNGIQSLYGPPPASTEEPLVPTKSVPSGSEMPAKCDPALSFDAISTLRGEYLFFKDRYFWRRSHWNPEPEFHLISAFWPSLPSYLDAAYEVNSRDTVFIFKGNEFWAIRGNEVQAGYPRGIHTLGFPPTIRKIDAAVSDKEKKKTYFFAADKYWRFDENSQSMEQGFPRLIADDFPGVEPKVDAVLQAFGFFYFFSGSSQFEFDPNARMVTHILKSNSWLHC

MMP-8h = MMP-8h (Homo sapiens (Human), UniProt P22894); experiment: Inhibition constant (Ki) on MMP-8h; settings: read-out: Ki MMP-8h; human MMP-8
MMP-8h, sequence (P22894 101-467): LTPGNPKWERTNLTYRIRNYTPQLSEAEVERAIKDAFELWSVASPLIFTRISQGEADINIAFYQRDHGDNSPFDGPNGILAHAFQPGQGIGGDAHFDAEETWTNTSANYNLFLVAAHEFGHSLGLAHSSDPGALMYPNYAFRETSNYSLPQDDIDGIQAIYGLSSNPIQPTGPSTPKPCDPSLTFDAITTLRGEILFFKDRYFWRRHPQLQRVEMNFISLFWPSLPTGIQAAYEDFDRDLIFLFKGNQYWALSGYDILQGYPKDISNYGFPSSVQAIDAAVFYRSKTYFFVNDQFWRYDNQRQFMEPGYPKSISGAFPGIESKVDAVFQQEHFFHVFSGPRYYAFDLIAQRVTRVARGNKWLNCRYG

MMP-2h = MMP-2h (Homo sapiens (Human), UniProt P08253); experiment: Inhibition constant (Ki) on MMP-2h; settings: read-out: Ki MMP-2h; human MMP-2
MMP-2h, sequence (P08253 110-660): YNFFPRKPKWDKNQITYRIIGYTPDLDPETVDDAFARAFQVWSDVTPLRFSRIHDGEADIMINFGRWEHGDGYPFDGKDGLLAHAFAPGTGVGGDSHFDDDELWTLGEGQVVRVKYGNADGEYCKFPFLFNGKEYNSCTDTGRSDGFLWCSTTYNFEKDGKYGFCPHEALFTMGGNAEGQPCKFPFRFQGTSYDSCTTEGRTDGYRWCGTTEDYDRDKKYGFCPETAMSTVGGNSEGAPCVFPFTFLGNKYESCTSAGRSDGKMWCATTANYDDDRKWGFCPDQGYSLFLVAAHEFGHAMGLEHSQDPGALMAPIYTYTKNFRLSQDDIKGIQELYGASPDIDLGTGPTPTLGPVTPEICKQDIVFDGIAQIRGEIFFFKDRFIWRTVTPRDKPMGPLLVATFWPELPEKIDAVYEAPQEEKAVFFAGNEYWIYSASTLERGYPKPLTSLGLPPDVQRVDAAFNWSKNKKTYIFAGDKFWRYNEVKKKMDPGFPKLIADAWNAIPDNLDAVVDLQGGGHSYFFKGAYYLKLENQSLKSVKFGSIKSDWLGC
Method in brief: as §1

MMP-12h = MMP-12h (Homo sapiens (Human), UniProt P39900); experiment: Inhibition constant (Ki) on MMP-12h; settings: read-out: Ki MMP-12h; human MMP-12
MMP-12h, sequence (P39900 106-470): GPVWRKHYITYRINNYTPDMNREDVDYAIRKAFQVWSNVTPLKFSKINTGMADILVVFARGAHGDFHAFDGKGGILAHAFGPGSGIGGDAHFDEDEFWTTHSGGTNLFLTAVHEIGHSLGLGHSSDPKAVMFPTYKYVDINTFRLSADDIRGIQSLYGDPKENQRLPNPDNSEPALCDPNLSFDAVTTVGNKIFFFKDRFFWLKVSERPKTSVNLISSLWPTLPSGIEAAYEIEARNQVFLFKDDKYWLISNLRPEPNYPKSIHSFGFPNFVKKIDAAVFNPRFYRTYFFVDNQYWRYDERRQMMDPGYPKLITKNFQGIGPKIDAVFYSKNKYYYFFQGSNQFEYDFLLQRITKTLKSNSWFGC

MMP-13h = MMP-13h (Homo sapiens (Human), UniProt P45452); experiment: Inhibition constant (Ki) on MMP-13h; settings: read-out: Ki MMP-13h; human MMP-13
Method in brief: as §1

MMP-3h = MMP-3h (Homo sapiens (Human), UniProt P08254); experiment: Inhibition constant (Ki) on MMP-3h; settings: read-out: Ki MMP-3h; human MMP-3
MMP-3h, sequence (P08254 100-477): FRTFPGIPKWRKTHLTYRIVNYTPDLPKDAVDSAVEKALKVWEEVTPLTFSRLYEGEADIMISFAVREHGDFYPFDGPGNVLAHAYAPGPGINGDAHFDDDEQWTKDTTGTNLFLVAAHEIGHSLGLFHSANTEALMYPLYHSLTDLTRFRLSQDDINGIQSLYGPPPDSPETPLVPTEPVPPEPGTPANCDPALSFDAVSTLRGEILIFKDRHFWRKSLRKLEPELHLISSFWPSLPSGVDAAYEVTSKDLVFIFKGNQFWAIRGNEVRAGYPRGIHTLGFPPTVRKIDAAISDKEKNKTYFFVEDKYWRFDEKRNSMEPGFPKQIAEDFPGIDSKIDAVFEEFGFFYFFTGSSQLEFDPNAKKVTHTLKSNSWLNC
Method in brief: as §1

MMP-14h = MMP-14h (Homo sapiens (Human), UniProt P50281); experiment: Inhibition constant (Ki) on MMP-14h; settings: read-out: Ki MMP-14h; human MMP-14
Method in brief: as §1

MMP-9h, sequence (P14780 94-707): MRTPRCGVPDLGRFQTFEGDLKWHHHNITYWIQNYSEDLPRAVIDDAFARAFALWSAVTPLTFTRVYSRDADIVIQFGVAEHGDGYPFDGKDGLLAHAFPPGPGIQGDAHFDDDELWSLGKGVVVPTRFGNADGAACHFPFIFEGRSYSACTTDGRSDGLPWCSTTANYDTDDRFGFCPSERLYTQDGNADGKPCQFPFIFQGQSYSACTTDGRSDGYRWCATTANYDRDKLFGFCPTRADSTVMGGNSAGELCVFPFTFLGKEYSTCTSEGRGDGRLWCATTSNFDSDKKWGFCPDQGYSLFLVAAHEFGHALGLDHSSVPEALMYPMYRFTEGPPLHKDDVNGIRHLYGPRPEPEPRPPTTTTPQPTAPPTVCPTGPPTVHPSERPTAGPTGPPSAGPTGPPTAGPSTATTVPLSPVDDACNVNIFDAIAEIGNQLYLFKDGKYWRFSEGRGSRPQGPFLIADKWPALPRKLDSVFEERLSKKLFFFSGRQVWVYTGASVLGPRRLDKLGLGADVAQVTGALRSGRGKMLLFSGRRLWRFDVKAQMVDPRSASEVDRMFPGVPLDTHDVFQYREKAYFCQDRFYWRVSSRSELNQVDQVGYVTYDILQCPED

Compound | Ki (MMP-9h) | Ki (MMP-10h) | Ki (MMP-8h) | Ki (MMP-2h) | Ki (MMP-12h) | Ki (MMP-13h) | Ki (MMP-3h) | Ki (MMP-14h)
NC(=O)[C@H](Cc1ccc(O)cc1)NC(=O)[C@H](CCC(=O)O)NC(=O)CCc1ccc(-c2cccs2)cc1 [Compound 84, (S)-5-((S)-1-amino-3-(4-hydroxyphenyl)-1-oxopropan-2-ylamino)-5-oxo-4-(3-(4-(thiophen-2-yl)phenyl)propanamido)pentanoic acid] | 859 nM | 514 nM | 41 nM | 140 nM | 20.9 nM | 584 nM | > 5000 nM | > 1000 nM
NC(=O)CC[C@H](NC(=O)[C@H](CCC(=O)O)NC(=O)CCc1ccc(-c2ccc(-c3ccccc3)cc2)cc1)C(N)=O [Compound 62, (S)-5-((S)-1,5-diamino-1,5-dioxopentan-2-ylamino)-4-(3-(4′-phenylbiphenyl-4-yl)propanamido)-5-oxopentanoic acid] | > 1000 nM | 102 nM | 452 nM | 45 nM | 5.2 nM | 20 nM | 244 nM | > 1000 nM
COc1cccc(-c2ccc(CCC(=O)N[C@@H](CCC(=O)O)C(=O)N[C@@H](CCC(=O)O)C(N)=O)cc2)c1 [Compound 59, (S)-5-amino-4-((S)-4-carboxy-2-(3-(3′-methoxybiphenyl-4-yl)propanamido)butanamido)-5-oxopentanoic acid] | > 5000 nM | > 1000 nM | > 1000 nM | > 5000 nM | 35 nM | > 5000 nM | > 10000 nM | > 10000 nM
O=C(O)CC[C@H](NC(=O)CCc1ccc(-c2ccccc2)cc1)C(=O)Nc1cccc(CC(=O)O)c1 [Compound 52, (S)-4-(3-(biphenyl-4-yl)propanamido)-5-(3-(carboxymethyl)phenylamino)-5-oxopentanoic acid] | > 1000 nM | 433 nM | 63 nM | 546 nM | 12.7 nM | > 1000 nM | > 5000 nM | > 1000 nM
NC(=O)[C@H](CCC(=O)O)NC(=O)[C@H](CCC(=O)O)NC(=O)CCc1ccc(-c2ccc(-c3nc4ccccc4s3)s2)cc1 [Compound 93, (S)-5-amino-4-((S)-2-(3-(4-(5-(benzo[d]thiazol-2-yl)thiophen-2-yl)phenyl)propanamido)-4-carboxybutanamido)-5-oxopentanoic acid] | > 1000 nM | 38.8 nM | 307 nM | > 1000 nM | 17 nM | 33 nM | > 1000 nM | > 5000 nM
NC(=O)[C@H](CCC(=O)O)NC(=O)[C@H](Cc1cnc[nH]1)NC(=O)CCc1ccc(-c2cc(-c3ccccc3)cs2)cc1 [Compound 104, (S)-4-((S)-3-(1H-imidazol-5-yl)-2-(3-(4-(4-phenylthiophen-2-yl)phenyl)propanamido)propanamido)-5-amino-5-oxopentanoic acid] | > 5000 nM | > 5000 nM | > 1000 nM | > 5000 nM | 40 nM | > 1000 nM | > 10000 nM | > 5000 nM
NC(=O)CC[C@H](NC(=O)[C@H](CCC(N)=O)NC(=O)CCc1cc(-c2ccc(-c3ccccc3)cc2)no1)C(N)=O [Compound 22, (S)-2-(3-(3-(biphenyl-4-yl)isoxazol-5-yl)propanamido)-N^1-((S)-1,5-diamino-1,5-dioxopentan-2-yl)pentanediamide] | > 1000 nM | > 10000 nM | > 1000 nM | > 1000 nM | 830 nM | 436 nM | > 10000 nM | > 10000 nM
NC(=O)[C@H](CCC(=O)O)NC(=O)[C@H](CCC(=O)O)NC(=O)CCc1ccc(C#Cc2ccccc2)cc1 [Compound 30, (S)-5-amino-4-((S)-4-carboxy-2-(3-(4-(phenylethynyl)phenyl)propanamido)butanamido)-5-oxopentanoic acid] | 235 nM | > 1000 nM | 818 nM | > 1000 nM | 154 nM | 598 nM | > 1000 nM | > 1000 nM
